# Reference: US11865098B1, “Methods and compositions for treating excessive sleepiness” (Axsome Malta Ltd., priority 2017, dated 2024)
# Tested on: adult patients with OSA and ES
# Assay: MWT, 12-week placebo-controlled parallel study in OSA
# Assay type: in vivo, human
# Conditions: for MWT mean sleep latency increase from baseline >=5 minutes, subjects / MWT mean sleep latency increase from baseline >=10 minutes, subjects / MWT mean sleep latency increase from baseline >=15 minutes, subjects / MWT mean sleep latency increase from baseline >=20 minutes, subjects / MWT mean sleep latency increase from baseline >=25 minutes, subjects / MWT mean sleep latency increase from baseline >=30 minutes, subjects: mITT
# Description: The MWT is an objective test used to measure how alert a subject is during the day. The test consists of four sleep trials with two hours in between the trials. The first trial is performed 1.5-3 hours after the subject's normal wake-up time. Sensors are placed on the head, face, and chin to detect when the subject is asleep and awake during the test. The subject sits quietly in bed with his or her back and head supported by a pillow and is asked to sit still and look straight ahead while trying to stay awake as long as possible. Each trial lasts 40 minutes or until the subject is asleep for 90 seconds. Between trials, the subject stays out of bed and occupies himself or herself to remain awake. Falling asleep in an average of less than eight minutes is considered abnormal. About 40-60% of subjects with normal sleep stay awake for the entire 40 minutes of all four trials.
# The study was a 12-week, double-blind, placebo-controlled, parallel design study as described in greater detail in Example 1 (Schweitzer et al., Sleep 40(Abstract Supplement):A237. Abstract 0641 (2017)). Patients were randomized (1:1:2:2:2) to APC 37.5, 75, 150, 300 mg, or placebo for 12 weeks, and were stratified by adherence or non-adherence with primary OSA therapy (adherent definition was use for ≥4 hours per night on >70% of nights). Two patient-reported measures were included as secondary efficacy outcomes to evaluate the effects of APC on functional status and work productivity and activity impairment at baseline and weeks 1, 4, 8, and 12. The Functional Outcomes of Sleep questionnaire short version (FOSQ-10) (Chasens et al., Sleep 32(7):915 (2009)) evaluated the effects of ES on functioning. The Work Productivity and Activity Impairment questionnaire for Specific Health Problems (WPAI:SHP) (Reilly et al., Pharmacoeconomics 4(5):353 (1993); Reilly, Work Productivity and Activity Impairment Questionnaire: Specific Health Problem V2.0 (WPAI: SHP). www.reillyassociates.net/WPAI_SHP) evaluated work productivity impairment among employed patients and overall activity impairment outside of work among all patients for the past 7 days. Four outcomes are available from the WPAI:SHP: Absenteeism (percent work time missed due to health); Presenteeism (percent impairment while working due to health); Percent overall work impairment (calculated from absenteeism and presenteeism); and Percent activity impairment due to health. The FOSQ-10 was evaluated as change over time compared with placebo (least squares (LS) mean); the 4 WPAI outcomes were evaluated at week 12 compared to placebo. Efficacy analyses were based on the modified intent-to-treat population (mITT) and there was no multiplicity adjustment for the FOSQ-10 or WPAI:SHP. Safety and tolerability were assessed based on treatment-emergent adverse events (TEAEs), vital signs, electrocardiogram test, physical exams, Columbia-Suicide Severity Rating Scale, and laboratory tests in the safety population.
# This was a 12-week, double-blind, placebo-controlled, parallel-design study. Patients were randomized (1:1:2:2:2) to APC 37.5 mg, 75 mg, 150 mg, or 300 mg, or placebo for 12 weeks, and were stratified by adherence or nonadherence with primary OSA therapy.
# [1] = Week 12, Combined JZP-110 doses
structure (smiles),measurement,setting,value
"NC(=O)OC[C@H](N)Cc1ccccc1 [JZP-110, (R)-2-amino-3-phenylpropyl carbamate]",Co-primary MWT endpoint,"37.5, 75, 150, 300 mg, week 12",met at all doses
same,"MWT mean sleep latency increase from baseline >=5 minutes, subjects","Week 1, 37.5 mg",4 (22.2) n (%)
same,"MWT mean sleep latency increase from baseline >=10 minutes, subjects","Week 1, 37.5 mg",2 (11.1) n (%)
same,"MWT mean sleep latency increase from baseline >=15 minutes, subjects","Week 1, 37.5 mg",2 (11.1) n (%)
same,"MWT mean sleep latency increase from baseline >=20 minutes, subjects","Week 1, 37.5 mg",2 (11.1) n (%)
same,"MWT mean sleep latency increase from baseline >=25 minutes, subjects","Week 1, 37.5 mg",0 n (%)
same,"MWT mean sleep latency increase from baseline >=30 minutes, subjects","Week 1, 37.5 mg",0 n (%)
same,"MWT mean sleep latency increase from baseline >=5 minutes, subjects","Week 1, 75 mg",11 (64.7) n (%)
same,"MWT mean sleep latency increase from baseline >=10 minutes, subjects","Week 1, 75 mg",6 (35.3) n (%)
same,"MWT mean sleep latency increase from baseline >=15 minutes, subjects","Week 1, 75 mg",4 (23.5) n (%)
same,"MWT mean sleep latency increase from baseline >=20 minutes, subjects","Week 1, 75 mg",1 (5.9) n (%)
same,"MWT mean sleep latency increase from baseline >=25 minutes, subjects","Week 1, 75 mg",1 (5.9) n (%)
same,"MWT mean sleep latency increase from baseline >=30 minutes, subjects","Week 1, 75 mg",0 n (%)
same,"MWT mean sleep latency increase from baseline >=5 minutes, subjects","Week 1, 150 mg",27 (81.8) n (%)
same,"MWT mean sleep latency increase from baseline >=10 minutes, subjects","Week 1, 150 mg",22 (66.7) n (%)
same,"MWT mean sleep latency increase from baseline >=15 minutes, subjects","Week 1, 150 mg",13 (39.4) n (%)
same,"MWT mean sleep latency increase from baseline >=20 minutes, subjects","Week 1, 150 mg",9 (27.3) n (%)
same,"MWT mean sleep latency increase from baseline >=25 minutes, subjects","Week 1, 150 mg",4 (12.1) n (%)
same,"MWT mean sleep latency increase from baseline >=30 minutes, subjects","Week 1, 150 mg",2 (6.1) n (%)
same,"MWT mean sleep latency increase from baseline >=5 minutes, subjects","Week 1, 300 mg",28 (75.7) n (%)
same,"MWT mean sleep latency increase from baseline >=10 minutes, subjects","Week 1, 300 mg",22 (59.5) n (%)
same,"MWT mean sleep latency increase from baseline >=15 minutes, subjects","Week 1, 300 mg",19 (51.4) n (%)
same,"MWT mean sleep latency increase from baseline >=20 minutes, subjects","Week 1, 300 mg",14 (37.8) n (%)
same,"MWT mean sleep latency increase from baseline >=25 minutes, subjects","Week 1, 300 mg",7 (18.9) n (%)
same,"MWT mean sleep latency increase from baseline >=30 minutes, subjects","Week 1, 300 mg",4 (10.8) n (%)
same,"MWT mean sleep latency increase from baseline >=5 minutes, subjects","Week 1, Combined JZP-110 doses",70 (66.7) n (%)
same,"MWT mean sleep latency increase from baseline >=10 minutes, subjects","Week 1, Combined JZP-110 doses",52 (49.5) n (%)
same,"MWT mean sleep latency increase from baseline >=15 minutes, subjects","Week 1, Combined JZP-110 doses",38 (36.2) n (%)
same,"MWT mean sleep latency increase from baseline >=20 minutes, subjects","Week 1, Combined JZP-110 doses",26 (24.8) n (%)
same,"MWT mean sleep latency increase from baseline >=25 minutes, subjects","Week 1, Combined JZP-110 doses",12 (11.4) n (%)
same,"MWT mean sleep latency increase from baseline >=30 minutes, subjects","Week 1, Combined JZP-110 doses",6 (5.7) n (%)
same,"MWT mean sleep latency increase from baseline >=5 minutes, subjects","Week 4, 37.5 mg",21 (42.0) n (%)
same,"MWT mean sleep latency increase from baseline >=10 minutes, subjects","Week 4, 37.5 mg",16 (32.0) n (%)
same,"MWT mean sleep latency increase from baseline >=15 minutes, subjects","Week 4, 37.5 mg",7 (14.0) n (%)
same,"MWT mean sleep latency increase from baseline >=20 minutes, subjects","Week 4, 37.5 mg",4 (8.0) n (%)
same,"MWT mean sleep latency increase from baseline >=25 minutes, subjects","Week 4, 37.5 mg",0 n (%)
same,"MWT mean sleep latency increase from baseline >=30 minutes, subjects","Week 4, 37.5 mg",0 n (%)
same,"MWT mean sleep latency increase from baseline >=5 minutes, subjects","Week 4, 75 mg",34 (61.8) n (%)
same,"MWT mean sleep latency increase from baseline >=10 minutes, subjects","Week 4, 75 mg",25 (45.5) n (%)
same,"MWT mean sleep latency increase from baseline >=15 minutes, subjects","Week 4, 75 mg",11 (20.0) n (%)
same,"MWT mean sleep latency increase from baseline >=20 minutes, subjects","Week 4, 75 mg",5 (9.1) n (%)
same,"MWT mean sleep latency increase from baseline >=25 minutes, subjects","Week 4, 75 mg",2 (3.6) n (%)
same,"MWT mean sleep latency increase from baseline >=30 minutes, subjects","Week 4, 75 mg",1 (1.8) n (%)
same,"MWT mean sleep latency increase from baseline >=5 minutes, subjects","Week 4, 150 mg",83 (76.9) n (%)
same,"MWT mean sleep latency increase from baseline >=10 minutes, subjects","Week 4, 150 mg",54 (50.0) n (%)
same,"MWT mean sleep latency increase from baseline >=15 minutes, subjects","Week 4, 150 mg",40 (37.0) n (%)
same,"MWT mean sleep latency increase from baseline >=20 minutes, subjects","Week 4, 150 mg",26 (24.1) n (%)
same,"MWT mean sleep latency increase from baseline >=25 minutes, subjects","Week 4, 150 mg",13 (12.0) n (%)
same,"MWT mean sleep latency increase from baseline >=30 minutes, subjects","Week 4, 150 mg",3 (2.8) n (%)
same,"MWT mean sleep latency increase from baseline >=5 minutes, subjects","Week 4, 300 mg",79 (78.2) n (%)
same,"MWT mean sleep latency increase from baseline >=10 minutes, subjects","Week 4, 300 mg",63 (62.4) n (%)
same,"MWT mean sleep latency increase from baseline >=15 minutes, subjects","Week 4, 300 mg",47 (46.5) n (%)
same,"MWT mean sleep latency increase from baseline >=20 minutes, subjects","Week 4, 300 mg",32 (31.7) n (%)
same,"MWT mean sleep latency increase from baseline >=25 minutes, subjects","Week 4, 300 mg",15 (14.9) n (%)
same,"MWT mean sleep latency increase from baseline >=30 minutes, subjects","Week 4, 300 mg",5 (5.0) n (%)
same,"MWT mean sleep latency increase from baseline >=5 minutes, subjects","Week 4, Combined JZP-110 doses",217 (69.1) n (%)
same,"MWT mean sleep latency increase from baseline >=10 minutes, subjects","Week 4, Combined JZP-110 doses",158 (50.3) n (%)
same,"MWT mean sleep latency increase from baseline >=15 minutes, subjects","Week 4, Combined JZP-110 doses",105 (33.4) n (%)
same,"MWT mean sleep latency increase from baseline >=20 minutes, subjects","Week 4, Combined JZP-110 doses",67 (21.3) n (%)
same,"MWT mean sleep latency increase from baseline >=25 minutes, subjects","Week 4, Combined JZP-110 doses",30 (9.6) n (%)
same,"MWT mean sleep latency increase from baseline >=30 minutes, subjects","Week 4, Combined JZP-110 doses",9 (2.9) n (%)
same,"MWT mean sleep latency increase from baseline >=5 minutes, subjects","Week 12, 37.5 mg",18 (36.7) n (%)
same,"MWT mean sleep latency increase from baseline >=10 minutes, subjects","Week 12, 37.5 mg",16 (32.7) n (%)
same,"MWT mean sleep latency increase from baseline >=15 minutes, subjects","Week 12, 37.5 mg",10 (20.4) n (%)
same,"MWT mean sleep latency increase from baseline >=20 minutes, subjects","Week 12, 37.5 mg",5 (10.2) n (%)
same,"MWT mean sleep latency increase from baseline >=25 minutes, subjects","Week 12, 37.5 mg",0 n (%)
same,"MWT mean sleep latency increase from baseline >=30 minutes, subjects","Week 12, 37.5 mg",0 n (%)
same,"MWT mean sleep latency increase from baseline >=5 minutes, subjects","Week 12, 75 mg",35 (64.8) n (%)
same,"MWT mean sleep latency increase from baseline >=10 minutes, subjects","Week 12, 75 mg",25 (46.3) n (%)
same,"MWT mean sleep latency increase from baseline >=15 minutes, subjects","Week 12, 75 mg",15 (27.8) n (%)
same,"MWT mean sleep latency increase from baseline >=20 minutes, subjects","Week 12, 75 mg",7 (13.0) n (%)
same,"MWT mean sleep latency increase from baseline >=25 minutes, subjects","Week 12, 75 mg",3 (5.6) n (%)
same,"MWT mean sleep latency increase from baseline >=30 minutes, subjects","Week 12, 75 mg",1 (1.9) n (%)
same,"MWT mean sleep latency increase from baseline >=5 minutes, subjects","Week 12, 150 mg",71 (67.6) n (%)
same,"MWT mean sleep latency increase from baseline >=10 minutes, subjects","Week 12, 150 mg",53 (50.5) n (%)
same,"MWT mean sleep latency increase from baseline >=15 minutes, subjects","Week 12, 150 mg",39 (37.1) n (%)
same,"MWT mean sleep latency increase from baseline >=20 minutes, subjects","Week 12, 150 mg",26 (24.8) n (%)
same,"MWT mean sleep latency increase from baseline >=25 minutes, subjects","Week 12, 150 mg",13 (12.4) n (%)
same,"MWT mean sleep latency increase from baseline >=30 minutes, subjects","Week 12, 150 mg",0 n (%)
same,"MWT mean sleep latency increase from baseline >=5 minutes, subjects","Week 12, 300 mg",69 (75.0) n (%)
same,"MWT mean sleep latency increase from baseline >=10 minutes, subjects","Week 12, 300 mg",60 (65.2) n (%)
same,"MWT mean sleep latency increase from baseline >=15 minutes, subjects","Week 12, 300 mg",40 (43.5) n (%)
same,"MWT mean sleep latency increase from baseline >=20 minutes, subjects","Week 12, 300 mg",26 (28.3) n (%)
same,"MWT mean sleep latency increase from baseline >=25 minutes, subjects","Week 12, 300 mg",12 (13.0) n (%)
same,"MWT mean sleep latency increase from baseline >=30 minutes, subjects","Week 12, 300 mg",6 (6.5) n (%)
same,"MWT mean sleep latency increase from baseline >=5 minutes, subjects",[1],193 (64.3) n (%)
same,"MWT mean sleep latency increase from baseline >=10 minutes, subjects",[1],154 (51.3) n (%)
same,"MWT mean sleep latency increase from baseline >=15 minutes, subjects",[1],104 (34.7) n (%)
same,"MWT mean sleep latency increase from baseline >=20 minutes, subjects",[1],64 (21.3) n (%)
same,"MWT mean sleep latency increase from baseline >=25 minutes, subjects",[1],28 (9.3) n (%)
same,"MWT mean sleep latency increase from baseline >=30 minutes, subjects",[1],7 (2.3) n (%)
